Biological target: T1, Ech (enoyl-CoA hydratase/aldolase) (Streptomyces sp. V-1, UniProt S5LPF1)
T1 construct: ATCC 39116
T1 sequence (S5LPF1 1-287): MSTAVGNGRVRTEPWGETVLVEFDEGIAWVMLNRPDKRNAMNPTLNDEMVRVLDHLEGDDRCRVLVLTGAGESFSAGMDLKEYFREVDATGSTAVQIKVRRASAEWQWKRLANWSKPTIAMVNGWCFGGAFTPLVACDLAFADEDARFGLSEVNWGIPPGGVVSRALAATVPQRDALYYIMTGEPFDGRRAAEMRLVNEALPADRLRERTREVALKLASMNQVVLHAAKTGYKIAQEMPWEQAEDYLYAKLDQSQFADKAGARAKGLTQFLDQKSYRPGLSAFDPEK
Test: coupled assay with purified Fcs, GC analysis (qualitative)
Format: biochemical
Conditions: feruloyl-CoA made in situ from 0.7 mM ferulic acid by Fcs; 2 mM ATP, 0.4 mM CoA, 2.5 mM MgCl2, 100 mM potassium phosphate pH 7.0

COc1cc(C=O)ccc1O [vanillin, 4-hydroxy-3-methoxybenzaldehyde]
coupled assay with purified Fcs, GC analysis (qualitative): production of vanillin, catalyzed by Ech, were observed and analyzed qualitatively from the GC spectrum

— PMC3696112 (PLoS ONE, 2013)
